SMILES: Nc1ccc(S(=O)(=O)[O-])c(N)c1.[Na+]
- solubility (mole fraction) (in isopropanol, 273.15 K): 2.2e-05
- solubility (mole fraction) (in isopropanol, 278.15 K): 2.78e-05
- solubility (mole fraction) (in isopropanol, 283.15 K): 3.51e-05
- solubility (mole fraction) (in isopropanol, 288.15 K): 4.43e-05
- solubility (mole fraction) (in isopropanol, 293.15 K): 5.57e-05
- solubility (mole fraction) (in isopropanol, 298.15 K): 6.99e-05
- solubility (mole fraction) (in isopropanol, 303.15 K): 8.76e-05
- solubility (mole fraction) (in isopropanol, 308.15 K): 0.000109
- solubility (mole fraction) (in isopropanol, 313.15 K): 0.000136
- solubility (mole fraction) (in isopropanol, 318.15 K): 0.00017
- solubility (mole fraction) (in isopropanol, 323.15 K): 0.000211
- solubility (mole fraction) (in methanol, 273.15 K): 0.000977
- solubility (mole fraction) (in methanol, 278.15 K): 0.00109
- solubility (mole fraction) (in methanol, 283.15 K): 0.00145
- solubility (mole fraction) (in methanol, 288.15 K): 0.00173
- solubility (mole fraction) (in methanol, 293.15 K): 0.00228
- solubility (mole fraction) (in methanol, 298.15 K): 0.00274
- solubility (mole fraction) (in methanol, 303.15 K): 0.00318
- solubility (mole fraction) (in methanol, 308.15 K): 0.00395
- solubility (mole fraction) (in methanol, 313.15 K): 0.00466
- solubility (mole fraction) (in methanol, 318.15 K): 0.00558
- solubility (mole fraction) (in methanol, 323.15 K): 0.00661
- solubility (mole fraction) (in propylene glycol, 273.15 K): 0.000831
- solubility (mole fraction) (in propylene glycol, 278.15 K): 0.00121
- solubility (mole fraction) (in propylene glycol, 283.15 K): 0.00145
- solubility (mole fraction) (in propylene glycol, 288.15 K): 0.00196
- solubility (mole fraction) (in propylene glycol, 293.15 K): 0.00235
- solubility (mole fraction) (in propylene glycol, 298.15 K): 0.0028
- solubility (mole fraction) (in propylene glycol, 303.15 K): 0.00359
- solubility (mole fraction) (in propylene glycol, 308.15 K): 0.00431
- solubility (mole fraction) (in propylene glycol, 313.15 K): 0.00577
- solubility (mole fraction) (in propylene glycol, 318.15 K): 0.00749
- solubility (mole fraction) (in propylene glycol, 323.15 K): 0.00963

Reference: BigSolDB 2.1
